Measured values as given in ChEMBL document CHEMBL2321780, “Fluorinated quinazolinones as potential radiotracers for imaging kinesin spindle protein expression” (2013).

Assays:
[1] = target: Centromere-associated protein E (Homo sapiens) (UniProt Q02224); assay: Inhibition of CENP-E (unknown origin)-mediated ATP hydrolysis assessed as residual activity at 1 uM after 10 to 20 mins by spectrophotometric analysis
[2] = target: T1, Kinesin-like protein KIF11 (Homo sapiens) (UniProt P52732); assay: Inhibition of KSP (unknown origin)-mediated ATP hydrolysis assessed as residual activity at 1 uM after 10 to 20 mins by spectrophotometric analysis
T1 sequence (whole entry): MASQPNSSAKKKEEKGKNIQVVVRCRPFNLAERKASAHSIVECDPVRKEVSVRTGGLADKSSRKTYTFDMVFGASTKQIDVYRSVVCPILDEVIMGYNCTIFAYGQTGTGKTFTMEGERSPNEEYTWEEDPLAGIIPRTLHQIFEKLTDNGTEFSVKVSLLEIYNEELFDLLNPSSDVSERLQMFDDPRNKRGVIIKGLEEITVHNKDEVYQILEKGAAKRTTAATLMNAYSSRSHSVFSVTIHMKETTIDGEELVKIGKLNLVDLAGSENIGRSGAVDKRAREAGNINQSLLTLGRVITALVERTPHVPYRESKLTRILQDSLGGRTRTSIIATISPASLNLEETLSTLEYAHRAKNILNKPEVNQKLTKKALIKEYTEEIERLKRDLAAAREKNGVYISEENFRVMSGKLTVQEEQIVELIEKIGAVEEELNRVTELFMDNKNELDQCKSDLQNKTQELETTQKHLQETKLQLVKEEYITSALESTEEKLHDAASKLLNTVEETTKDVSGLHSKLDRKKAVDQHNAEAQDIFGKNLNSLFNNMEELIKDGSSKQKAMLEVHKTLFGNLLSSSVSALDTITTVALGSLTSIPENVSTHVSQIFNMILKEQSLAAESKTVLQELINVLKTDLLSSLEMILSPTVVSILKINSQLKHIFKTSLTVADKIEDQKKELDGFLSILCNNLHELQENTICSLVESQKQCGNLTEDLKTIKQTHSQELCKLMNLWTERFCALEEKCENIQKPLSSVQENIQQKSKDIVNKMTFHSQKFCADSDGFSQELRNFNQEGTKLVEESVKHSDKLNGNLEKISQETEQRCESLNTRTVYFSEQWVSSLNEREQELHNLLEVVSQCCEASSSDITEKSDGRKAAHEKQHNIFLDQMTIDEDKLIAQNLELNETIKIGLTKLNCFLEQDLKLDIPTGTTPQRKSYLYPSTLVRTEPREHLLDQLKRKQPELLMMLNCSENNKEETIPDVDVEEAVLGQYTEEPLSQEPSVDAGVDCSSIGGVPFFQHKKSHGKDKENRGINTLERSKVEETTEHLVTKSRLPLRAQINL

[3] = target: T2, Kinesin-like protein KIF2C (Homo sapiens) (UniProt Q99661); assay: Inhibition of MCAK (unknown origin)-mediated ATP hydrolysis assessed as residual activity at 1 uM after 10 to 20 mins by spectrophotometric analysis
T2 sequence (whole entry): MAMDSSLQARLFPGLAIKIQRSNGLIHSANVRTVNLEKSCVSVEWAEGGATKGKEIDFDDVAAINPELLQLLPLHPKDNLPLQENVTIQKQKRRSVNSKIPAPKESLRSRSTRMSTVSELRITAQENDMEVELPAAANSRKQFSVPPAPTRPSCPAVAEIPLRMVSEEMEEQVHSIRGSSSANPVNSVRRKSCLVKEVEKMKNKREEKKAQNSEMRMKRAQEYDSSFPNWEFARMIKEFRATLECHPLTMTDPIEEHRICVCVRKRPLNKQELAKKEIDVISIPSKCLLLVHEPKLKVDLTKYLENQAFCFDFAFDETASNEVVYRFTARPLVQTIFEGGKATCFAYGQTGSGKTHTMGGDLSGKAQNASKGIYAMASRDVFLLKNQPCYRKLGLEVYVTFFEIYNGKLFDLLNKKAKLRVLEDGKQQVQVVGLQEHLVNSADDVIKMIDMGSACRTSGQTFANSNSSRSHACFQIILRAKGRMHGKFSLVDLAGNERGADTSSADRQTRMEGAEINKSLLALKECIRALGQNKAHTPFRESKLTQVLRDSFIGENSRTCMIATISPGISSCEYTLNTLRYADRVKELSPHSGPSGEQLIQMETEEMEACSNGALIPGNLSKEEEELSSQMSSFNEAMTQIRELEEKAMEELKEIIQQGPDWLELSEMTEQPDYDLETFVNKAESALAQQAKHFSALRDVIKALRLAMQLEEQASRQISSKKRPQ

[4] = target: T3, Kinesin-1 heavy chain (Homo sapiens) (UniProt P33176); assay: Inhibition of KNH (unknown origin)-mediated ATP hydrolysis assessed as residual activity at 1 uM after 10 to 20 mins by spectrophotometric analysis
T3 sequence (whole entry): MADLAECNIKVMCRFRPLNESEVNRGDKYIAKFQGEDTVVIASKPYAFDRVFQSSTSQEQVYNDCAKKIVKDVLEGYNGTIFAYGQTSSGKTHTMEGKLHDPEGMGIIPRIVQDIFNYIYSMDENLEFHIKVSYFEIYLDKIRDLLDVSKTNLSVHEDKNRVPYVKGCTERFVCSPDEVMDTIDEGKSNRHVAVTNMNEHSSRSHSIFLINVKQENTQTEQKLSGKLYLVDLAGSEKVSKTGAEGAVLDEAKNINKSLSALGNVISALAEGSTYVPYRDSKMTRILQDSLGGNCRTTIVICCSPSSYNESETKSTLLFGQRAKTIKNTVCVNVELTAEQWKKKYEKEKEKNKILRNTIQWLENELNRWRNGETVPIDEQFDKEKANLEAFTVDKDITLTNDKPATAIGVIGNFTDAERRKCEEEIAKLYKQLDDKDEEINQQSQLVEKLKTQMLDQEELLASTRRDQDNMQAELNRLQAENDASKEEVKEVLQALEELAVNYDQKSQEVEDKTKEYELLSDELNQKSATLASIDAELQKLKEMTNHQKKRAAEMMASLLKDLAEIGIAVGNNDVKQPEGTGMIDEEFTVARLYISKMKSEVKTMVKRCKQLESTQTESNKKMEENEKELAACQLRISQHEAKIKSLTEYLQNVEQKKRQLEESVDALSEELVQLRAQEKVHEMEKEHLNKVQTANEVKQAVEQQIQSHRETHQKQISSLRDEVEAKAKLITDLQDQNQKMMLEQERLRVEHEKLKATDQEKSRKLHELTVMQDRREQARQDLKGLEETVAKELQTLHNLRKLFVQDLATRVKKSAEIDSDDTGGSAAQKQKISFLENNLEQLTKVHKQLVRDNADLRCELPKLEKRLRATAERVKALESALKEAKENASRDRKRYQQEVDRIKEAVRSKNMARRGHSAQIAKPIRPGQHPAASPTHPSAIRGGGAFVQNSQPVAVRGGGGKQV

DU-145 = assay: Nonspecific cytotoxicity against human DU145 cells after 44 hrs by MTT assay; format: functional; conditions: DU-145, 44 h
MCF7 = assay: Nonspecific cytotoxicity against human MCF7 cells after 44 hrs by MTT assay; format: functional; conditions: MCF7, 44 h
PC-3 = assay: Nonspecific cytotoxicity against human PC3 cells after 44 hrs by MTT assay; format: functional; conditions: PC-3, 44 h

Chain of Centromere-associated protein E (Homo sapiens) (Q02224 whole entry): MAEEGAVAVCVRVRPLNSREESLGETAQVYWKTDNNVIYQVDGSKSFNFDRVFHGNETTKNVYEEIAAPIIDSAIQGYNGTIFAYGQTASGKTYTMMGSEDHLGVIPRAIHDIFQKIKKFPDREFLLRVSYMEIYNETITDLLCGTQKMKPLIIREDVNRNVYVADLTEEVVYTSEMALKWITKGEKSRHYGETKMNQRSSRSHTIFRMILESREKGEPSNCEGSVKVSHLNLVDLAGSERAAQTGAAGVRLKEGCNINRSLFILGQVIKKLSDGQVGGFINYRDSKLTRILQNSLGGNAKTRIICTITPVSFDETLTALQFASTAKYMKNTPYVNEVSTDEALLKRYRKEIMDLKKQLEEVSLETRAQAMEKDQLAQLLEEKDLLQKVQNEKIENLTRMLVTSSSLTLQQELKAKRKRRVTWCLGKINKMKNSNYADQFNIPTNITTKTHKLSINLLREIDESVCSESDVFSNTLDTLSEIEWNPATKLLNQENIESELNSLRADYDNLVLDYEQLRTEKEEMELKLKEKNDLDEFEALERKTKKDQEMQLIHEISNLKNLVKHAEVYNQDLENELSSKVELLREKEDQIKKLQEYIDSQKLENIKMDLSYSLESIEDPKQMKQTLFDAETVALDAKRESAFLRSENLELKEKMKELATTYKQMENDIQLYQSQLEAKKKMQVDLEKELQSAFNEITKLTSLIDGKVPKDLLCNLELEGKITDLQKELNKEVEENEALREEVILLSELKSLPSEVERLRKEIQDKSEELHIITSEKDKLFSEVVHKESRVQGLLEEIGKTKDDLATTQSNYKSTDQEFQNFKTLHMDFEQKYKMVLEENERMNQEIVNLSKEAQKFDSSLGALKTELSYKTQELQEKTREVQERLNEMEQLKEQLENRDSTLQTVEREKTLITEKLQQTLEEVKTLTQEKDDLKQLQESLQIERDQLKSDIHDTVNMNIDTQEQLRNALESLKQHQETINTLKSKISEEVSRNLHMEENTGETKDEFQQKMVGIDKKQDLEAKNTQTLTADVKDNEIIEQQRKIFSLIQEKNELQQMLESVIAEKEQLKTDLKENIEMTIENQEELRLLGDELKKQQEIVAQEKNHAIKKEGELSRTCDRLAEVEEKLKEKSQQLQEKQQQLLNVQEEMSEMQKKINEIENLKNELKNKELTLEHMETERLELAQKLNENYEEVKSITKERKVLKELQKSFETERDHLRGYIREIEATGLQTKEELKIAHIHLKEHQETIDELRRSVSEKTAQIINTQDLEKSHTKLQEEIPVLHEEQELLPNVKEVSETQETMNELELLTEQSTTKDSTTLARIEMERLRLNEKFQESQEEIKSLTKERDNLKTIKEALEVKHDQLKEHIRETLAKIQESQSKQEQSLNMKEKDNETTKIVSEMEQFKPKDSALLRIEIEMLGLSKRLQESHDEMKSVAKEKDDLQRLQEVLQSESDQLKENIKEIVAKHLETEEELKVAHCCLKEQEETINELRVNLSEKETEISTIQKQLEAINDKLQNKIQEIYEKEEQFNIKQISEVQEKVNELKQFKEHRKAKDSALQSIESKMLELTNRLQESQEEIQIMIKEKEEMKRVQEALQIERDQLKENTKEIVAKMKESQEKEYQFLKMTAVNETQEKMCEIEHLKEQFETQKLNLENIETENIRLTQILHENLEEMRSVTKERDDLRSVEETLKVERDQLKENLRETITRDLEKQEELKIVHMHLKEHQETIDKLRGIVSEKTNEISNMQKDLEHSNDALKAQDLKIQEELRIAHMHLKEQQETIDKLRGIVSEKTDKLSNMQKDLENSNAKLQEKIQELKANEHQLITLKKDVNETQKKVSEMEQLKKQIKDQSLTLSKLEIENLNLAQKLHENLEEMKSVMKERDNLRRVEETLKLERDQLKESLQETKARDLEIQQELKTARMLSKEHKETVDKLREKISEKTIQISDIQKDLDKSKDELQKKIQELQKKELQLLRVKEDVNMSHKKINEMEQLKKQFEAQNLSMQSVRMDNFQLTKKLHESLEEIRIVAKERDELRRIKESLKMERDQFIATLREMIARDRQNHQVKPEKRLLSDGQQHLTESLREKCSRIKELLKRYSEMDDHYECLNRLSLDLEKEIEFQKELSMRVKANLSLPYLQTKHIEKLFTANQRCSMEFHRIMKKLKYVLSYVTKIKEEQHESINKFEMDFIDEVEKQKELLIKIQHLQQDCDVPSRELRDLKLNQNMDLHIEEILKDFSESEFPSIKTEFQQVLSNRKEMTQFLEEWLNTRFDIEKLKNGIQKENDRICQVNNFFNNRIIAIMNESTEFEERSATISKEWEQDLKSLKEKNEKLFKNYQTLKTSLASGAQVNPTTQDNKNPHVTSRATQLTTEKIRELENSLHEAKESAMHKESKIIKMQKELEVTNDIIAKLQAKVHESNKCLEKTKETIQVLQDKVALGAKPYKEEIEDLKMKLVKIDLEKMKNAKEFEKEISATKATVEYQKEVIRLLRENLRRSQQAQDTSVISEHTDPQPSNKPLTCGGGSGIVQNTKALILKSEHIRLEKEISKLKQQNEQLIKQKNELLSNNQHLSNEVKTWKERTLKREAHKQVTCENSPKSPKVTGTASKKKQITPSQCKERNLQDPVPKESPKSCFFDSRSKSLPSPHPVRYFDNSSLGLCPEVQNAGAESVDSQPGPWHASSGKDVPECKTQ

| Activity [1] | Activity [2] | Activity [3] | Activity [4] | SMILES | GI50 (DU-145) | GI50 (MCF7) | GI50 (PC-3) |
| --- | --- | --- | --- | --- | --- | --- | --- |
| 99.1% | 99.4% | 99.2% | 96.8% | Cc1ccc(C(=O)N(CCCN)[C@H](c2nc3cc(Cl)ccc3c(=O)n2Cc2ccccc2)C(C)C)cc1 | – | – | – |
| 98% | 8.8% | 96.7% | 102% | Cc1ccc(C(=O)N(CCCN)[C@@H](c2nc3cc(Cl)ccc3c(=O)n2Cc2ccccc2)C(C)C)cc1 [ISPINESIB] | – | – | – |
| 97.4% | 96.1% | 98.9% | 99.2% | CC(C)[C@@H](c1nc2cc(Cl)ccc2c(=O)n1Cc1ccccc1)N(CCCN)C(=O)c1ccc(F)cc1 | 350 nM | 1100 nM | 1300 nM |
| 100% | 95.5% | 98.6% | 98.9% | CC(C)[C@@H](c1nc2cc(Cl)ccc2c(=O)n1Cc1ccccc1)N(CCCN)C(=O)c1cccc(F)c1 | 520 nM | 630 nM | 1800 nM |
| 97.4% | 10.1% | 96.4% | 99.1% | CC(C)C(c1nc2cc(Cl)ccc2c(=O)n1Cc1ccccc1)N(CCCN)C(=O)c1cccc(F)c1 (racemic) | 3300 nM | 2900 nM | 7600 nM |
| 97.9% | 95.9% | 98.2% | 97.9% | CC(C)[C@@H](c1nc2cc(Cl)ccc2c(=O)n1Cc1ccccc1)N(CCCN)C(=O)c1ccccc1F | 720 nM | 2000 nM | 160 nM |
| 99.8% | 2.7% | 99.2% | 97.1% | CC(C)[C@H](c1nc2cc(Cl)ccc2c(=O)n1Cc1ccccc1)N(CCCN)C(=O)c1ccc(F)cc1 | 2200 nM | 2500 nM | 5100 nM |
| 99.1% | 7.5% | 98.7% | 97.2% | CC(C)[C@H](c1nc2cc(Cl)ccc2c(=O)n1Cc1ccccc1)N(CCCN)C(=O)c1ccccc1F | 5600 nM | 3000 nM | 4600 nM |
